The values below come from US20220235064A1 (WELLMARKER BIO CO., LTD., priority 2019, published 2022).

The target in test [1] is T1, RON tyrosine kinase (Homo sapiens, UniProt Q04912).
T1 construct: purchased Carna Bioscience
Briefly: Enzyme inhibitory activity against RON tyrosine kinase (TR-FRET). In kind it is biochemical. Particulars: RON (Carna Bioscience). The protocol: Experimental Example 1: Measurement of Enzyme Inhibitory Activity Against RON Tyrosine Kinase
To measure enzyme inhibitory activity of the example compounds against RON, IC50 values of the compounds were measured using fluorescence resonance energy transfer (FRET).
Specifically, first, RON (Carna Bioscience) was diluted in a kinase assay buffer (50 mM HEPES pH 7.5, 1 mM EGTA, 10 mM MgCl2, 2 mM DTT, and 0.01% Tween-20) to be at a concentration (0.4 nM) that is twice the final reaction concentration. The dilute was added to a 384-well-plate at 5 μl per well. Each of the example compounds was prepared at a concentration of 1 mM in 100% DMSO and diluted 8 times in a stepwise manner through 10-fold dilution. Each compound was diluted in a kinase assay buffer to be at a concentration that is 4 times the final reaction concentration. The dilute was added to a 384-well-plate at 2.5 μl per well, and incubation was performed at room temperature for 15 minutes.
Thereafter, an ATP solution (Sigma Aldrich) prepared at a concentration of 0.25 M was diluted in a kinase assay buffer to be at a concentration (60 μM) that is 4 times the final reaction concentration. Dilution of a tyrosine peptide substrate (Perkin-Elmer) was performed therein to be at a concentration (400 nM) that is 4 times the final reaction concentration. The dilute was added to a 384-well-plate at 2.5 µl per well. Reaction was allowed to proceed for 60 minutes by incubating the 384-well-plate at room temperature. Thereafter, EDTA (Sigma Aldrich) was diluted in a TR-FRET detection buffer (Perkin-Elmer) to be at a concentration (20 mM) that is twice the final reaction concentration. Dilution of a Europium-containing phosphotyrosine antibody (Perkin-Elmer) was performed in the diluted EDTA solution to be at a concentration (4 nM) that is twice the final reaction concentration, so that a stop solution for RON reaction was prepared.
The stop solution was added to the 384-well-plate at 10 μl per well to quench the reaction, and incubation was performed at room temperature for 60 minutes. Then, the 384-well-plate was read on a Victor X5 (Perkin-Elmer) plate reader. Here, the excitation wavelength was 340 nm, and the emission wavelengths were 620 nm and 665 nm. An IC50 value of the compound was derived using GraphPad Prism 5 program, in which the IC50 was derived by expressing emission energy at the wavelength of 665 nm as a function of the compound concentration.
A general note: Time-resolved FRET reads energy transfer from a long-lived donor to a nearby acceptor.

Test [2] concerns cancer cell line KM12C, in which RON is activated. Put plainly: Cell-killing efficacy in RON-activated cancer cell line (trypan blue). The note with it: Homo sapiens, 48 hours, trypan blue, n=2, read-out: Cell death (%) Cancer cell line KM12C. In kind it is cell-based. The protocol: Experimental Example 3: Measurement of Cell-Killing Efficacy of Example Compounds in RON-Activated Cancer Cell Line
The cancer cell line KM12C (80015, KCLB, MEM+10% FBS), in which RON is activated, was dispensed into each 60 mm^2 dish at 1×10^5 cells. After 24 hours, the dish was treated with each of the example compounds at a concentration of 1 μM or 5 μM while performing medium exchange, and then reaction was allowed to proceed for 48 hours. After 48 hours, centrifugation was performed for 4 minutes at 1,500 rpm to collect cells and cell fluid. Thereafter, living cells and dead cells were quantified (n=2) using a trypan blue solution (15250-061, Gibco), and statistical analysis was performed using Excel-T-test. Here, as a negative control, only a solvent (0.100 DMSO) was used; and as a positive control, N-(4-(2-amino-3-chloropyridin-4-yloxy)-3-fluorophenyl)-4-ethoxy-1-(4-fluorophenyl)-2-oxo-1,2-dihydropyridine-3-carboxamide, which is the compound of Example 1 in WO 2008/058229 A1, was used.

The test system is the same in test [3]. Briefly: Cell growth inhibitory ability in RON-activated cancer cell line (MTS). In kind it is cell-based. Particulars: Homo sapiens, 48 hours, absorbance 490 nm. As to the method: Experimental Example 2: Identification of Cell Growth Inhibitory Ability of Example Compounds in RON-Activated Cancer Cell Line
The cancer cell line KM12C (80015, KCLB, MEM+1K° FBS), in which RON is activated, was treated with each of the example compounds at a concentration of 10 μM, and then reaction was allowed to proceed for 48 hours. 24 hours after completion of the reaction, 20 μl of MTS solution (CellTiter 96 Aqueous One Solution Cell Proliferation Assay, product number: G3581, Promega) was added to each well, and then incubation was performed at a temperature of 37° C. in 50 CO2 incubator for 4 hours. Then, an IC50 value of the compound was derived by measuring its absorbance value at a wavelength of 490 nm using a Victor X5 plate reader. Here, as a positive control, N-(4-(2-amino-3-chloropyridin-4-yloxy)-3-fluorophenyl)-4-ethoxy-1-(4-fluorophenyl)-2-oxo-1,2-dihydropyridine-3-carboxamide, which is the compound of Example 1 in WO 2008/058229 A1, was used.

T1 sequence (Q04912 25-1400): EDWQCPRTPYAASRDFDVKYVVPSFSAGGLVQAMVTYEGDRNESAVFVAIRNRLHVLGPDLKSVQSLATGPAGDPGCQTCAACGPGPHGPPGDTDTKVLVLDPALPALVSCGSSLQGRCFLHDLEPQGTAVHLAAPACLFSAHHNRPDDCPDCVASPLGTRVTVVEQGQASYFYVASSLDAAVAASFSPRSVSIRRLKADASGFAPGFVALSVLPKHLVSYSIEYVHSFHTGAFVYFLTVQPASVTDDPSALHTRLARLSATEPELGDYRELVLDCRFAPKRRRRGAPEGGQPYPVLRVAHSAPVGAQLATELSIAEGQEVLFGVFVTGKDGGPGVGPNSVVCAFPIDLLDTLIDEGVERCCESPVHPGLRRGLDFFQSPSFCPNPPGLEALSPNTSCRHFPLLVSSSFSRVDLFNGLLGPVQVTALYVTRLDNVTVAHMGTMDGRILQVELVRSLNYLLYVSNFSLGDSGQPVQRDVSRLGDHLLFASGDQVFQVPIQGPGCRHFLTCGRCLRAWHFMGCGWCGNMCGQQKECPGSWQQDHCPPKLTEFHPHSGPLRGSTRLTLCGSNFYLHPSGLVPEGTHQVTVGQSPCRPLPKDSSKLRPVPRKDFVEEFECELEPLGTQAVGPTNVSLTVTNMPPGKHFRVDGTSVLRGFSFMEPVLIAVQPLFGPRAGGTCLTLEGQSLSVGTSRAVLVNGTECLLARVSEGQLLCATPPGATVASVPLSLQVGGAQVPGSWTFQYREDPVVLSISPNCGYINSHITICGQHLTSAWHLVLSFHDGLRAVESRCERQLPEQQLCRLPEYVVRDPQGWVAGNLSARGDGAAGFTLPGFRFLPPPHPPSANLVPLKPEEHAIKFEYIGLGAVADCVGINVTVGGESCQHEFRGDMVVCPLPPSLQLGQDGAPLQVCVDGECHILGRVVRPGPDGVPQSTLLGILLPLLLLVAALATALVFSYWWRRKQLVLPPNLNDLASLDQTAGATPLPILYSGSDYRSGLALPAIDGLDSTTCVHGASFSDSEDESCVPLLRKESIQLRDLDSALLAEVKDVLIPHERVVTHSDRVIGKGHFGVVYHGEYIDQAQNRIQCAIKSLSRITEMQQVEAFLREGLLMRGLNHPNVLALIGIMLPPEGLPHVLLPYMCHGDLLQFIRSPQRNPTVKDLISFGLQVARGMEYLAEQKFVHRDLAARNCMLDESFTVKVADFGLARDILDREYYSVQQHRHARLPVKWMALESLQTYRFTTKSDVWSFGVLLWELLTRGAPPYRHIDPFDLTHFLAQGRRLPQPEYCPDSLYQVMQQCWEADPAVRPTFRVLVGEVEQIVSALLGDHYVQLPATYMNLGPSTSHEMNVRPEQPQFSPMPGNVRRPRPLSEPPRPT

Broadly, the IC50 is the concentration at which inhibition is half-maximal. The molecule `COc1ccc2nccc(Oc3ccc(NC(=O)c4c5c(cn(-c6ccc(F)cc6)c4=O)CCO5)cc3F)c2c1` [Example 44, N-(3-Fluoro-4-((6-methoxyquinolin-4-yl)oxy)phenyl)-5-(4-fluorophenyl)-6-oxo-2,3,5,6-tetrahydrofuro[3,2-c]pyridine-7-carboxamide] came in with an IC50 in test [1] of 1.87 nM. Besides, in test [2], the cytotoxicity at 1 µM came out at 16% and the cytotoxicity at 5 µM came out at 21.4%.

In the case of `O=C(Nc1ccc(Oc2ccnc3cc(-c4ccc(CN5CCC(F)CC5)cn4)sc23)c(F)c1)c1c2c(cn(-c3ccc(F)cc3)c1=O)CCO2` [Example 34, N-(3-Fluoro-4-((2-(5-((4-fluoropiperidin-1-yl)methyl)pyridin-2-yl)thieno[3,2-b]pyridin-7-yl)oxy)phenyl)-5-(4-fluorophenyl)-6-oxo-2,3,5,6-tetrahydrofuro[3,2-c]pyridine-7-carboxamide], in test [3], inhibition was half-maximal at 3 nM (IC50). In addition, in test [2], the cytotoxicity at 1 µM is 13.7% and the cytotoxicity at 5 µM was 15.9%.

The molecule `O=C(Nc1ccc(Oc2ccnc3cc(-c4ccc(CN5CC(F)C5)cn4)sc23)c(F)c1)c1c2c(cn(-c3ccc(F)cc3)c1=O)CCO2` [Example 17, N-(3-Fluoro-4-((2-(5-((3-fluoroazetidin-1-yl)methyl)pyridin-2-yl)thieno[3,2-b]pyridin-7-yl)oxy)phenyl)-5-(4-fluorophenyl)-6-oxo-2,3,5,6-tetrahydrofuro[3,2-c]pyridine-7-carboxamide] registered an IC50 in test [3] of 1 nM. Also, in test [2], the cytotoxicity at 1 µM worked out at 14% and the cytotoxicity at 5 µM was determined as 27.7%.

In turn, `COc1cc2c(Oc3ccc(NC(=O)c4c5c(cn(-c6ccc(F)cc6)c4=O)CCO5)cc3F)ccnc2cc1OCCCN1CC(C#N)C1` [Example 88, N-(4-((7-(3-(3-Cyanoazetidin-1-yl)propoxy)-6-methoxyquinolin-4-yl)oxy)-3-fluorophenyl)-5-(4-fluorophenyl)-6-oxo-2,3,5,6-tetrahydrofuro[3,2-c]pyridine-7-carboxamide] registered an IC50 in test [3] of 3 nM. Further, in test [2], the cytotoxicity at 1 µM is 18.8% and the cytotoxicity at 5 µM amounted to 24.7%.

With `CC1(O)CCN(Cc2ccc(-c3cc4nccc(Oc5ccc(NC(=O)c6c7c(cn(-c8ccc(F)cc8)c6=O)CCO7)cc5F)c4s3)nc2)C1` (stereo not drawn) [Example 24, N-(3-Fluoro-4-((2-(5-((3-hydroxy-3-methylpyrrolidin-1-yl)methyl)pyridin-2-yl)thieno[3,2-b]pyridin-7-yl)oxy)phenyl)-5-(4-fluorophenyl)-6-oxo-2,3,5,6-tetrahydrofuro[3,2-c]pyridine-7-carboxamide], the midpoint of inhibition in test [3], the IC50, lay at 1 nM. Besides, in test [2], the cytotoxicity at 1 µM amounted to 18.6% and the cytotoxicity at 5 µM turned out to be 16.9%.

Regarding `O=C(Nc1ccc(Oc2ccnc3cc(-c4ccc(CN5CC(F)(F)C5)cn4)sc23)c(F)c1)c1c2c(cn(-c3ccc(F)cc3)c1=O)CCO2` [Example 18, N-(4-((2-(5-((3,3-Difluoroazetidin-1-yl)methyl)pyridin-2-yl)thieno[3,2-b]pyridine-7-yl)oxy)-3-fluorophenyl)-5-(4-fluorophenyl)-6-oxo-2,3,5,6-tetrahydrofuro[3,2-c]pyridine-7-carboxamide], it took 3 nM to reach half-maximal inhibition in test [3] (IC50). Also, in test [2], the cytotoxicity at 1 µM amounted to 10.9% and the cytotoxicity at 5 µM was determined as 11.3%.

Molecule `CC1CCN(Cc2ccc(-c3cc4nccc(Oc5ccc(NC(=O)c6c7c(cn(-c8ccc(F)cc8)c6=O)CCO7)cc5F)c4s3)nc2)CC1` [Example 36, N-(3-Fluoro-4-((2-(5-((4-methylpiperidin-1-yl)methyl)pyridin-2-yl)thieno[3,2-b]pyridin-7-yl)oxy)phenyl)-5-(4-fluorophenyl)-6-oxo-2,3,5,6-tetrahydrofuro[3,2-c]pyridine-7-carboxamide] yielded an IC50 in test [3] of 5 nM. In test [2], the cytotoxicity at 1 µM amounted to 17.1% and the cytotoxicity at 5 µM is 30%.

In turn, `CC1CCN(CCCOc2ccc3c(Oc4ccc(NC(=O)c5c6c(cn(-c7ccc(F)cc7)c5=O)CCO6)cc4F)ccnc3c2)CC1` [Example 162] returned an IC50 in test [1] of 1.18 nM. In test [2], the cytotoxicity at 1 µM was 16.4% and the cytotoxicity at 5 µM worked out at 22.6%.

With `Cn1cc(-c2cc3nccc(Oc4ccc(NC(=O)c5c6c(cn(-c7ccc(F)cc7)c5=O)CCO6)cc4F)c3s2)cn1` [Example 10, N-(3-Fluoro-4-((2-(1-methyl-1H-pyrazol-4-yl)thieno[3,2-b]pyridin-7-yl)oxy)phenyl)-5-(4-fluorophenyl)-6-oxo-2,3,5,6-tetrahydrofuro[3,2-c]pyridine-7-carboxamide], half-maximal inhibition in test [1] (IC50) was put at 0.92 nM. Moreover, in test [2], the cytotoxicity at 1 µM was 22% and the cytotoxicity at 5 µM stood at 21.9%.

For the molecule `COc1ccc2c(Oc3ccc(NC(=O)c4c5c(cn(-c6ccc(F)cc6)c4=O)CCO5)cc3F)ccnc2c1` [Example 45, N-(3-Fluoro-4-((7-methoxyquinolin-4-yl)oxy)phenyl)-5-(4-fluorophenyl)-6-oxo-2,3,5,6-tetrahydrofuro[3,2-c]pyridine-7-carboxamide], the IC50 in test [1] was 1.5 nM. In addition, in test [2], the cytotoxicity at 1 µM was 16.3% and the cytotoxicity at 5 µM amounted to 18.9%.

In test [1], `COc1cc2nccc(Oc3ccc(NC(=O)c4c5c(cn(-c6ccc(F)cc6)c4=O)CCO5)cc3F)c2cc1C(=O)N(C)C` [Example 49, N-(4-((6-(Dimethylcarbamoyl)-7-methoxyquinolin-4-yl)oxy)-3-fluorophenyl)-5-(4-fluorophenyl)-6-oxo-2,3,5,6-tetrahydrofuro[3,2-c]pyridine-7-carboxamide] displayed an IC50 of 2.98 nM. For the same molecule, in test [2], the cytotoxicity at 1 µM came out at 9.98% and the cytotoxicity at 5 µM was determined as 11.2%.

In test [1], `O=C(Nc1ccc(Oc2ccnc3cc(OCCN4CCOCC4)c(C(F)(F)F)cc23)c(F)c1)c1c2c(cn(-c3ccc(F)cc3)c1=O)CCO2` [Example 169, N-(3-Fluoro-4-((7-(2-morpholinoethoxy)-6-(trifluoromethyl)quinolin-4-yl)oxy)phenyl)-5-(4-fluorophenyl)-6-oxo-2,3,5,6-tetrahydrofuro[3,2-c]pyridine-7-carboxamide] registered an IC50 above 100 nM.

The molecule `COc1cc2nccc(Oc3ccc(NC(=O)c4c5c(cn(-c6ccc(C(F)(F)F)cc6)c4=O)CCO5)cc3F)c2cc1OC` [Example 42, N-(4-((6,7-Dimethoxyquinolin-4-yl)oxy)-3-fluorophenyl)-6-oxo-5-(4-(trifluoromethyl)phenyl)-2,3,5,6-tetrahydrofuro[3,2-c]pyridine-7-carboxamide] gave an IC50 in test [1] of 30 nM.

In turn, `Cc1cc2c(Oc3ccc(NC(=O)c4c5c(cn(-c6ccc(F)cc6)c4=O)CCO5)cc3F)ccnc2[nH]1` [Example 70, N-(3-Fluoro-4-((2-methyl-1H-pyrrolo[2,3-b]pyridin-4-yl)oxy)-3-fluorophenyl)-5-(4-fluorophenyl)-6-oxo-2,3,5,6-tetrahydrofuro[3,2-c]pyridine-7-carboxamide] returned an IC50 in test [1] of 3.66 nM.
